From ChEMBL document CHEMBL1909046, “DrugMatrix in vitro pharmacology data”

Experiments:
[1] = target: T1, Cholecystokinin receptor type A (Homo sapiens, UniProt P32238); format: cell membranes, Membrane; details: 1321-n1; further: in other assays of this panel Not Active means under 50% inhibition at 10 µM
T1 sequence (P32238 whole entry): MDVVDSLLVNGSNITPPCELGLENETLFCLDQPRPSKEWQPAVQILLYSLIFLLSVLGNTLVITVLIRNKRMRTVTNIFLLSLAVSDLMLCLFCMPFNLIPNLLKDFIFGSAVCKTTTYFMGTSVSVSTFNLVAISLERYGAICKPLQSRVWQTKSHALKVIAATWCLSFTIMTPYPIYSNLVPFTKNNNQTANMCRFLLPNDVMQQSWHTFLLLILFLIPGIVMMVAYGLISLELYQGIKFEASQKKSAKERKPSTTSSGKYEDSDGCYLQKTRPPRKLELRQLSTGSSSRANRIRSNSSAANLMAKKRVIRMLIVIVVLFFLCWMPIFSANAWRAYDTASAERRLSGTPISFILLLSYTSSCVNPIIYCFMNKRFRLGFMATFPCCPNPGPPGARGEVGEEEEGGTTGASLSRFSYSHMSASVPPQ

[2] = DRUGMATRIX: Interleukin IL-1 radioligand binding (ligand: [125I] interleukin 1beta); format: cell membranes, Membrane; details: nih3t3; Not Active = under 50% inhibition at 10 µM
Melanocortin receptor 5 = Melanocortin receptor 5 (Homo sapiens, UniProt P33032); format: cell membranes, HEK293, Membrane; details: hek293; further: in other assays of this panel Not Active means under 50% inhibition at 10 µM
Sequence of Melanocortin receptor 5 (P33032 whole entry): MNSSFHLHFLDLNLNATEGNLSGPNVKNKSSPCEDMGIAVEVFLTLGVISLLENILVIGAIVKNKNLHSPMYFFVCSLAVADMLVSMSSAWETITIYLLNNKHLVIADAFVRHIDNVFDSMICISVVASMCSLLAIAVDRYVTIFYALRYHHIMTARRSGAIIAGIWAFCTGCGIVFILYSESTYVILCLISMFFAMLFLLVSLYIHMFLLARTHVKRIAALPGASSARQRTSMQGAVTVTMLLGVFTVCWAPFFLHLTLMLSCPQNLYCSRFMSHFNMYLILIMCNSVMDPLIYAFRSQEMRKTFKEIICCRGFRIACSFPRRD

[3] = target: T2, Angiotensin-converting enzyme (Oryctolagus cuniculus, UniProt P12822); format: tissue-based, Lung;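 further: enzymatic inhibition of angiotensin-converting enzyme measured with FAPGG as the substrate; in other assays of this panel Not Active means under 50% inhibition at 10 µM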
T2 sequence (P12822 whole entry): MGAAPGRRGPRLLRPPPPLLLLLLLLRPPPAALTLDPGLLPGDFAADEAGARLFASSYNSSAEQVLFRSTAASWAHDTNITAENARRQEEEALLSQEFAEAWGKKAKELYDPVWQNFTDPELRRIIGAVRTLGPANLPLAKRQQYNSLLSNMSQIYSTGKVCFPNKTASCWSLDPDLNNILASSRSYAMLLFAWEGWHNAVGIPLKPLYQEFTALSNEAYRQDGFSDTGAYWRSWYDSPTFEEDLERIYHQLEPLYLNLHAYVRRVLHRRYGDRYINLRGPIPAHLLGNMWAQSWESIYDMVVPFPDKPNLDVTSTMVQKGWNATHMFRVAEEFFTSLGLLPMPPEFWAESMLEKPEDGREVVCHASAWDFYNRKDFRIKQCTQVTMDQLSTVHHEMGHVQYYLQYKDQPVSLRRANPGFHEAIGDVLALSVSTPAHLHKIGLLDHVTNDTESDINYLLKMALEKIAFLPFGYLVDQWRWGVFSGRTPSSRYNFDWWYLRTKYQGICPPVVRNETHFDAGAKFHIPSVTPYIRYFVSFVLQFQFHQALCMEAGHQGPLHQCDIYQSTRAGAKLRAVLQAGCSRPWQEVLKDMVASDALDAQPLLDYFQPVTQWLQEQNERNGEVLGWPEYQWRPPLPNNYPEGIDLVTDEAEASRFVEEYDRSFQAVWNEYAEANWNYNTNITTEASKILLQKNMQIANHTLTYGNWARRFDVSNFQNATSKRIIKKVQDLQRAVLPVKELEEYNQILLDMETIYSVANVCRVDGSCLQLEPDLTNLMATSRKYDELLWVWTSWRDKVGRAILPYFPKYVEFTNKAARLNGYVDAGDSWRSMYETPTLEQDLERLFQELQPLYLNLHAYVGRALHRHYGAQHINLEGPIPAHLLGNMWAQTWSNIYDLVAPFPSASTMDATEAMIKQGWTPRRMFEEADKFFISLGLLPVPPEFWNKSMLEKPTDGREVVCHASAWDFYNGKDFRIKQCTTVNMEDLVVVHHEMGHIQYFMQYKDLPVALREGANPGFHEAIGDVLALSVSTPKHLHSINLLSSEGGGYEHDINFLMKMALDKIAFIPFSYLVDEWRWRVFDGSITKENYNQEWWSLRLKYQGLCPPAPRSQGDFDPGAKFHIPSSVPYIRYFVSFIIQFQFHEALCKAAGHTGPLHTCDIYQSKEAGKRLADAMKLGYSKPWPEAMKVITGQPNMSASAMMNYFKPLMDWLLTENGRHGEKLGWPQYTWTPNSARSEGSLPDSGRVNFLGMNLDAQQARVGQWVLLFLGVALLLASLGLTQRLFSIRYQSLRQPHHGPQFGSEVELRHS

Interstitial collagenase = target: T3, Interstitial collagenase (Homo sapiens, UniProt P03956); test: biochemical; format: tissue-based, Rheumatoid synovial fibroblasts;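 further: MMP-1 enzyme inhibition assay using a peptide substrate; in other assays of this panel Not Active means under 50% inhibition at 10 µM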
T3 sequence (P03956 whole entry): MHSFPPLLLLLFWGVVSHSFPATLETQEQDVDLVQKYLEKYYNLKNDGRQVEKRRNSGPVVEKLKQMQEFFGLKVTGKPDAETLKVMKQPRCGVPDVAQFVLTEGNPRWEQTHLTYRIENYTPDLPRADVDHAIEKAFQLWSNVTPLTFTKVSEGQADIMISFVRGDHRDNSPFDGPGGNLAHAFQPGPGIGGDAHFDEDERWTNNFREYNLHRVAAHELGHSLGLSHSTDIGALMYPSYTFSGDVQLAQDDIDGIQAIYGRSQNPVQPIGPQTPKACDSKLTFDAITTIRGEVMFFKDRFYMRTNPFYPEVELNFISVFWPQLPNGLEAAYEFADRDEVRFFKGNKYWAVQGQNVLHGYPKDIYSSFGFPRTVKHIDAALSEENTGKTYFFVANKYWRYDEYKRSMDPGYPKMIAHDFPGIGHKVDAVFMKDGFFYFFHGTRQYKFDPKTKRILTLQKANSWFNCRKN

[4] = target: Mitogen-activated protein kinase 14 (Homo sapiens, UniProt Q16539); set-up: species or system Escherichia coli
Sequence of Mitogen-activated protein kinase 14 (Q16539 whole entry): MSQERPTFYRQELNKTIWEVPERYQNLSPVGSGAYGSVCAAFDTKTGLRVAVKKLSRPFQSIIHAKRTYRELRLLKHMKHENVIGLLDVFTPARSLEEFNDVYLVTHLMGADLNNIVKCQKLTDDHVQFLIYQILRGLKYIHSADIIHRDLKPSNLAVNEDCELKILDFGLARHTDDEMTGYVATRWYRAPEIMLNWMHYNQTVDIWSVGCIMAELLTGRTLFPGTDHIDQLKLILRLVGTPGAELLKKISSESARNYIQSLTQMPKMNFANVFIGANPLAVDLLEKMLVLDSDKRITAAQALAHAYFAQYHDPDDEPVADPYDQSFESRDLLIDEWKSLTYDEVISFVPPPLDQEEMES

[5] = target: Tyrosine-protein kinase Fyn (Homo sapiens, UniProt P06241); test: biochemical; format: cell-based, Insect cells; details: insect cells
Sequence of Tyrosine-protein kinase Fyn (P06241 whole entry): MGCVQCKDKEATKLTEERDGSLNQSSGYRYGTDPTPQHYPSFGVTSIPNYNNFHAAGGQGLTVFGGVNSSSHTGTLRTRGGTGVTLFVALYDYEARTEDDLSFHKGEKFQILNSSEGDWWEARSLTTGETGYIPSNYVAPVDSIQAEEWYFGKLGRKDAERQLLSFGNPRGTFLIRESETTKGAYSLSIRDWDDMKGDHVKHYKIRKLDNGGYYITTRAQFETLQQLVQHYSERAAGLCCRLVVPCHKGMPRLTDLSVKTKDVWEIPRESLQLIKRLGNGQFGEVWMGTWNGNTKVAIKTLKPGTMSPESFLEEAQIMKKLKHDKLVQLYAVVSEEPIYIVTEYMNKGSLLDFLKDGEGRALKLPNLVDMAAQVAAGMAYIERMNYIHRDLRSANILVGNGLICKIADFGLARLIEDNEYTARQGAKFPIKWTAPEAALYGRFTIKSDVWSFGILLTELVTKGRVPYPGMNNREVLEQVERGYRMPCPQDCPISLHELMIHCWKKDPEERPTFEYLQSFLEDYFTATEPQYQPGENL

O=C(O)c1cc(-c2ccc(F)cc2F)ccc1O [DIFLUNISAL]
Not Active: IC50 [1] | IC50 [2] | Ki [2] | IC50 (Melanocortin receptor 5) | IC50 [3] | IC50 (Interstitial collagenase) | IC50 [4] | IC50 [5]

C[S+](C)[O-] [DIMETHYL SULFOXIDE]
Not Active: IC50 [1] | IC50 [2] | Ki [2] | IC50 (Melanocortin receptor 5) | IC50 [3] | IC50 (Interstitial collagenase) | IC50 [4] | IC50 [5]

CC1=NN(c2ccccc2)C(=O)C1 [EDARAVONE]
Not Active: IC50 [1] | IC50 [2] | Ki [2] | IC50 (Melanocortin receptor 5) | IC50 [3] | IC50 (Interstitial collagenase) | IC50 [4] | IC50 [5]

CC(C)C[C@H]1C(=O)N2CCC[C@H]2[C@]2(O)O[C@](NC(=O)[C@@H]3C=C4c5cccc6[nH]cc(c56)C[C@H]4N(C)C3)(C(C)C)C(=O)N12 [ERGOCRYPTINE]
Not Active: IC50 [1] | IC50 [2] | Ki [2] | IC50 (Melanocortin receptor 5) | IC50 [3] | IC50 (Interstitial collagenase) | IC50 [4] | IC50 [5]

C[C@]12CC[C@@H]3c4ccc(O)cc4CC[C@H]3[C@@H]1C[C@@H](O)[C@@H]2O [ESTRIOL]
Not Active: IC50 [1] | IC50 [2] | Ki [2] | IC50 (Melanocortin receptor 5) | IC50 [3] | IC50 (Interstitial collagenase) | IC50 [4] | IC50 [5]

C#C[C@]1(O)CC[C@H]2[C@@H]3CCC4=CC(=O)CC[C@]4(C)[C@H]3CC[C@@]21C [ETHISTERONE]
Not Active: IC50 [1] | IC50 [2] | Ki [2] | IC50 (Melanocortin receptor 5) | IC50 [3] | IC50 (Interstitial collagenase) | IC50 [4] | IC50 [5]

CC(O)(P(=O)(O)O)P(=O)(O)O [ETIDRONIC ACID]
Not Active: IC50 [1] | IC50 [2] | Ki [2] | IC50 (Melanocortin receptor 5) | IC50 [3] | IC50 (Interstitial collagenase) | IC50 [4] | IC50 [5]

CC(C)(C(=O)O)c1ccc(C(O)CCCN2CCC(C(O)(c3ccccc3)c3ccccc3)CC2)cc1 (stereo not given) [FEXOFENADINE]
Not Active: IC50 [1] | IC50 [2] | Ki [2] | IC50 (Melanocortin receptor 5) | IC50 [3] | IC50 (Interstitial collagenase) | IC50 [4] | IC50 [5]

CN1CCN(c2c(F)cc3c(=O)c(C(=O)O)cn(CCF)c3c2F)CC1 [FLEROXACIN]
Not Active: IC50 [1] | IC50 [2] | Ki [2] | IC50 (Melanocortin receptor 5) | IC50 [3] | IC50 (Interstitial collagenase) | IC50 [4] | IC50 [5]

O=c1[nH]c(=O)n([C@H]2C[C@H](O)[C@@H](CO)O2)cc1F [FLOXURIDINE]
Not Active: IC50 [1] | IC50 [2] | Ki [2] | IC50 (Melanocortin receptor 5) | IC50 [3] | IC50 (Interstitial collagenase) | IC50 [4] | IC50 [5]

COC(=O)Nc1nc2cc(C(=O)c3ccc(F)cc3)ccc2[nH]1 [FLUBENDAZOLE]
Not Active: IC50 [1] | IC50 [2] | Ki [2] | IC50 (Melanocortin receptor 5) | IC50 [3] | IC50 (Interstitial collagenase) | IC50 [4] | IC50 [5]

CC(=O)OCC(=O)[C@@]1(O)CC[C@H]2[C@@H]3CCC4=CC(=O)CC[C@]4(C)[C@@]3(F)[C@@H](O)C[C@@]21C [FLUDROCORTISONE ACETATE]
Not Active: IC50 [1] | IC50 [2] | Ki [2] | IC50 (Melanocortin receptor 5) | IC50 [3] | IC50 (Interstitial collagenase) | IC50 [4] | IC50 [5]

CCOC(=O)c1ncn2c1CN(C)C(=O)c1cc(F)ccc1-2 [FLUMAZENIL]
Not Active: IC50 [1] | IC50 [2] | Ki [2] | IC50 (Melanocortin receptor 5) | IC50 [3] | IC50 (Interstitial collagenase) | IC50 [4] | IC50 [5]

CC(=O)OCC(=O)[C@@]12OC(C)(C)O[C@@H]1C[C@H]1[C@@H]3C[C@H](F)C4=CC(=O)C=C[C@]4(C)[C@@]3(F)[C@@H](O)C[C@@]12C [FLUOCINONIDE]
Not Active: IC50 [1] | IC50 [2] | Ki [2] | IC50 (Melanocortin receptor 5) | IC50 [3] | IC50 (Interstitial collagenase) | IC50 [4] | IC50 [5]

O=C(O)P(=O)(O)O [FOSCARNET]
Not Active: IC50 [1] | IC50 [2] | Ki [2] | IC50 (Melanocortin receptor 5) | IC50 [3] | IC50 (Interstitial collagenase) | IC50 [4] | IC50 [5]
